In one experiment the target is T1, YhDAT (Homo sapiens, UniProt Q01959).
T1 construct: expressed in transfected cells
The experiment can be described thus: radioligand uptake inhibition assay ([3H]DA). It is filed as cell-based. The note with it: for IC50: HEK293 stably expressing YhDAT, 100 nM [3H]DA, mean and SD, N = 3-6, read-out: IC50, uptake inhibition at DAT (YhDAT); for Hill coefficient nH at DAT: uptake inhibition curve. On the procedure:
(§1) 1. Biological characterization
(§2) 1.1. Experimental methods
(§3) Buffer and solution compositions (in mM) are as follows:
(§4) Krebs-HEPES buffer (KHB): 120 NaCl, 3 KCl, 2 CaCl2, 2 MgCl2, 20 glucose, 10 HEPES NaOH, pH = 7.3 – 7.4. […]
(§5) 10 mM glucose, 1.25 mM NaH2PO4, pH = 7.4 (oxygenated with 95% O2, 5% CO2).
(§6) Human embryonic kidney 293 cells (HEK293) stably expressing the mCherry-tagged, YFP-tagged, and GFP-tagged human isoforms of SERT (mCherry-SERT, YhSERT, GhSERT), DAT (YhDAT), NET (hNET), and OCT3 (YhOCT3) were cultured in Dulbecco's modified Eagle's medium (DMEM) with high glucose (4.5 g/L) and l-glutamine (584 mg/L), supplemented with 10% fetal calf serum (FCS), 100 units/mL penicillin and 100 µg/mL streptomycin. The cells were cultured in a humidified atmosphere (37 °C, 5% CO2). Geneticin (50 µg/mL), Blasticidin (6 µg/mL), and Zeocin® (150 µg/mL) were added to maintain the selection pressure for the stable cell lines. Cells were typically seeded 24 hours prior to the experiments.
(§7) For uptake inhibition experiments, cells were seeded at 3.6 x 10^4 cells/0.2 mL into 96-well plates coated […]
(§8) with poly-d-lysine (PDL). […]
(§9) For uptake inhibition experiments, the cell medium was aspirated and the cells were washed once with 0.2 mL/well KHB at room temperature. The cells were pre-incubated with increasing concentrations of the substance of interest, diluted in KHB (0.05 mL/well). The pre-incubation solution was replaced with 0.05 mL/well KHB solution still containing the substance of interest and additionally the tritiated substrate (100 nM [3H]DA for YhDAT; 100 nM [3H]5HT for YhSERT; 20 nM and 50 nM [3H]MPP+ for hNET and YhOCT3), after 6 minutes (YhSERT), 5 minutes (YhDAT, hNET), or 10 minutes (YhOCT3). Substrate uptake was stopped after one minute (for [3H]DA and [3H]5HT), three minutes, or […]
(§10) The KHB was aspirated immediately. […] Non-specific uptake was determined in the presence of 30 µM paroxetine (for YhSERT), 50 µM GBR12909 (for YhDAT and hNET), or 100 µM decynium-22 (for YhOCT3). […]
(§11) [3H]-imipramine, and increasing concentrations of test compound, for 60 min at 20 – 22 °C. […] The amount of radioactivity in the filters was measured using a Tri-Carb 2800TR liquid scintillation analyzer (PerkinElmer). The Ki was calculated from the measured IC50 using the Cheng-Prusoff equation.
(§12) Prior to imaging, cell culture medium was replaced with pre-warmed KHB. […] PyrAtes were excited using a 405 nm laser, and its fluorescent signals collected using 525/50 nm emission filters; mCherry was excited using a 561 nm laser, and fluorescence was collected using 595/50 nm emission filters. […]
(§13) 5HT-mediated currents were measured at room temperature (20-25°C) using whole-cell patch clamp in HEK293 cells stably expressing SERT. […]

For a further experiment, the target named is T2, YhOCT3 (Homo sapiens, UniProt O75751).
T2 construct: expressed in transfected cells
T2 sequence (O75751 1-556): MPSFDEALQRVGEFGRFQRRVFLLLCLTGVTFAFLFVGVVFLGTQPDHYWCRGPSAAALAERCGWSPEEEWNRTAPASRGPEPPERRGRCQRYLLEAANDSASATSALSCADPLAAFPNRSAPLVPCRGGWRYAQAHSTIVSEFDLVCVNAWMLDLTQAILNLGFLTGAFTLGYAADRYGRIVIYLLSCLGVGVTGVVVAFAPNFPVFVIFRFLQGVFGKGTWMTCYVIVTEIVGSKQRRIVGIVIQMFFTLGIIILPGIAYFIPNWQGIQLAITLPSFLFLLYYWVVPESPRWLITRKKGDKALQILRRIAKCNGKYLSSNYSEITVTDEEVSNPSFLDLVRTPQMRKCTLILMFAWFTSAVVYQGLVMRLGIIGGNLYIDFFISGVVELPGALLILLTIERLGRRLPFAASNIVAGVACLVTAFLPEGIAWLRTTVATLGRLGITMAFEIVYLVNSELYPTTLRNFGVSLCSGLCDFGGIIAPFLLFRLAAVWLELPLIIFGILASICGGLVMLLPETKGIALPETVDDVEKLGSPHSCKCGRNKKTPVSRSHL
Nature of the experiment: radioligand uptake inhibition assay ([3H]MPP+). It is filed as cell-based. Particulars: for IC50: HEK293 stably expressing YhOCT3, 50 nM [3H]MPP+, mean and SD, N = 3-6, read-out: IC50, uptake inhibition at OCT3 (YhOCT3); for Hill coefficient nH at OCT3: uptake inhibition curve. How it is done:
as §1, §2, §3, §4, §5, §6, §7, §8, §9, §10, §11, §12, §13

Structures are written as SMILES.

In general, IC50 refers to the concentration needed to halve the response being measured.

T1 sequence (Q01959 whole entry): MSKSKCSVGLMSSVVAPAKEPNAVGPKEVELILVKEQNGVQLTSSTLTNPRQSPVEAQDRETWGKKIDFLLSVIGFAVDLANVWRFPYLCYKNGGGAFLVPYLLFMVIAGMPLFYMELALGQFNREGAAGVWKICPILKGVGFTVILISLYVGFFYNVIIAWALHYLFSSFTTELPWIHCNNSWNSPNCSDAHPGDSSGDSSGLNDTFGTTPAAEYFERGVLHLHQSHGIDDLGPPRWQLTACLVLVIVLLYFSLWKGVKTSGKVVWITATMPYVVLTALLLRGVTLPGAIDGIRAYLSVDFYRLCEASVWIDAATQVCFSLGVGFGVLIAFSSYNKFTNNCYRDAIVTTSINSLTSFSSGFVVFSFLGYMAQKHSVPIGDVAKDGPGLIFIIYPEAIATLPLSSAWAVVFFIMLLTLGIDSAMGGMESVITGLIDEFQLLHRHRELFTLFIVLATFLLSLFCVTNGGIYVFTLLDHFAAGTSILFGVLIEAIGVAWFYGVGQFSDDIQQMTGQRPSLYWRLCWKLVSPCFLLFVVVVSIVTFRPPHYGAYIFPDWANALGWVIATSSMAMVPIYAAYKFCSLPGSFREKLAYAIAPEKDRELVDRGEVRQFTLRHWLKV

On to `CCN(CC)c1ccc(-c2cc[n+]3c(-c4ccccc4)c(N4CCCC4)n(CCCCCCC(=O)NCc4ccc5c(c4)CO[C@@]5(CCCN(C)C)c4ccc(F)cc4)c3c2)cc1` [PYR-C6-CIT, PyrAte-C6-(S)-citalopram], for which, at YhDAT, the IC50 came to 2050 nM and the “Hill coefficient nH at DAT” value is −1.5. In addition, at YhOCT3, the IC50 is 2100 nM and the “Hill coefficient nH at OCT3” value is listed as −2.3.
As for `CCN(CC)c1ccc(-c2cc[n+]3c(-c4ccccc4)c(N4CCCC4)n(CCCC(=O)NCc4ccc5c(c4)CO[C@@]5(CCCN(C)C)c4ccc(F)cc4)c3c2)cc1` [PYR-C3-CIT, PyrAte-C3-(S)-citalopram], on YhDAT, the IC50 was 3570 nM and the “Hill coefficient nH at DAT” value was −1.3. At YhOCT3, the IC50 was determined as 3320 nM and the “Hill coefficient nH at OCT3” value is listed as −2.1.

(Values after PMC11891579, “Fluorescent PyrAte-(S)-citalopram conjugates enable imaging of the serotonin transporter in living tissue” (Chemical Science, 2025).)
